Seven compounds from ChEMBL document CHEMBL1139641 (Bioorg Med Chem Lett, 2005) can be followed below.

For orientation: inhibition means the drop in the measured response relative to a control, in per cent. As a reminder, the IC50 is the midpoint of a concentration-inhibition curve.

Experiment [1] concerns the target GABA B receptor (Rattus norvegicus) (UniProt Q9Z0U4+O88871). The experiment is described as follows: Percent displacement of [3H]GABA (1 mM) from Gamma-aminobutyric acid B receptor of rat cerebellum. The format is tissue-based. On the technique in general: Displacement assays read how much labelled ligand stays bound in the presence of the test substance.
Experiment [2] addresses GABA-A receptor; anion channel (Rattus norvegicus) (UniProt O09028+P15431+P18506+P18508+P19969+P20236+P23574+P23576+P28471+P28473+P30191+P62813+P63079+P63138+Q91ZM7+Q9ES14). The experiment is described as follows: Percent displacement of [3H]GABA (1 mM) from Gamma-aminobutyric acid A receptor of rat cerebral cortex. The format is tissue-based.
Experiment [3] has as its target Calcium/calmodulin-dependent protein kinase type II subunit alpha (Rattus norvegicus, UniProt P11275). The experiment is described as follows: Displacement of [3H]NCS-382 (16 nM) from GHB receptor of rat cerebrocortical membranes. The format is cell membranes, Membrane.

Each structure is given as a SMILES string.

Sequence of Calcium/calmodulin-dependent protein kinase type II subunit alpha (P11275 whole entry): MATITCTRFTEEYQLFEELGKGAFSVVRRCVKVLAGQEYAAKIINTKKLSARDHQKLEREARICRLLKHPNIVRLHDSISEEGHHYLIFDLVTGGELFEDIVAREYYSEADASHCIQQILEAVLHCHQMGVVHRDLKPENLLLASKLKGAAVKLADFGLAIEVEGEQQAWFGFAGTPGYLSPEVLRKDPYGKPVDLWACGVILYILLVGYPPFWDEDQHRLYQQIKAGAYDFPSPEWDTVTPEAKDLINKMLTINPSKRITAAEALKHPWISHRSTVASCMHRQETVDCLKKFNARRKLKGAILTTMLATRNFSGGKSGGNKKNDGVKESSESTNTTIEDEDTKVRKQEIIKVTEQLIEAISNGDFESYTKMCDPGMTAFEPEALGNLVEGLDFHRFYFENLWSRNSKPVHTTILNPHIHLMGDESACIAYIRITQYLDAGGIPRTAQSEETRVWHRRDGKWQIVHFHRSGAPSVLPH

With `O=C(O)CCCOc1ccccc1`, the inhibition in experiment [1] was 6.5%; in experiment [2] it was 6.3%. In addition, the IC50 in experiment [3] was 210 µM.
For `O=C(O)Cc1cccc(O)c1` [3-Hydroxyphenylacetate], the inhibition in experiment [1] was found to be 14%; in experiment [2], 44.2%. Also, the IC50 in experiment [3] is 12 µM.
In the case of `O=C(O)Cc1cccc(OCc2ccccc2)c1`, the inhibition in experiment [1] was -4.7%; in experiment [2], 11%. The IC50 in experiment [3] is 46 µM.
As to `O=C(O)CCCO`, the inhibition in experiment [1] worked out at 41.1%; in experiment [2], 35.5%.
Regarding `O=C(O)Cc1cccc(OCCCc2ccccc2)c1`, the inhibition in experiment [1] amounted to 6%; in experiment [2], 17.4%. The IC50 in experiment [3] is 4.5 µM.
As to `O=C(O)Cc1cccc(OCCc2ccccc2)c1`, the inhibition in experiment [1] is -1.2%; in experiment [2], 15.1%. Besides, in experiment [3], the IC50 is 8.3 µM.
Regarding `O=C(O)Cc1cccc(Oc2ccccc2)c1`, the figures for the inhibition in experiment [1] and in experiment [2] were -5.5% and 2.7%, respectively. The IC50 in experiment [3] was 16.3 µM.
